Like-named read-outs stand apart in the source and are kept apart here. Values belong to the molecule of their own block, whether it stands above or below them.
What was measured:
[1] = G. Antlsperger, 6th International Symposium on Cyclodextrins, 1992; cited from earlier work
[2] = cited from earlier work
[3] = cited from earlier work; remark: listed apart in the source
[4] = zahn-wellens test, 336 h
Experimental: The biological degradability was determined by means of the Zahn-Wellens Test (OECD Guidelines for testing of Chemicals 302B, Adopted by the Council on 17th Jul. 1992).

Molecule: OC[C@H]1O[C@@H]2O[C@H]3[C@H](O)[C@@H](O)[C@@H](O[C@H]4[C@H](O)[C@@H](O)[C@@H](O[C@H]5[C@H](O)[C@@H](O)[C@@H](O[C@H]6[C@H](O)[C@@H](O)[C@@H](O[C@H]7[C@H](O)[C@@H](O)[C@@H](O[C@H]8[C@H](O)[C@@H](O)[C@@H](O[C@H]9[C@H](O)[C@@H](O)[C@@H](O[C@H]1[C@H](O)[C@H]2O)O[C@@H]9CO)O[C@@H]8CO)O[C@@H]7CO)O[C@@H]6CO)O[C@@H]5CO)O[C@@H]4CO)O[C@@H]3CO [γ-CD, γ-cyclodextrin]
- toxicological properties [1]: favorable toxicological properties
- precipitation of complexes at higher concentrations ([2]; U.S. Pat. No. 4,764,604): frequently precipitate out at higher concentrations
- solubilizing capacity / properties ([2]; prior art statement): comparatively low
- solubility in water ([3]; native γ-cyclodextrin): 18.7 % by weight
- solubility in water ([3]; prior art statement): comparatively poorly soluble in water

- Degradation ZaWe-14d [4]: 98%
Molecule: Acetyl-γ-CD (DS, 0.83) [Ex. 2 Ac-gamma-CD(0.83)]

- Degradation ZaWe-14d [4]: 14%
Molecule: Methyl-γ-cyclodextrin (DS,1.8) [Me-gamma-CD(1.8)]

- Degradation ZaWe-14d [4]: 25%
Molecule: hydroxypropyl-γ-cyclodextrin [Hp-gamma-CD(0.9)]

From US5654422A, “Acylated γ-cyclodextrins” (priority 1994, dated 1997)
